Measurements as given in US9663495B2 (YUHAN CORPORATION, priority 2013, dated 2017).

Experiments:
GPR119 [1] = biological target: T1, GPR119 (Homo sapiens, UniProt Q8TDV5); test: cAMP Accumulation Assay (GPR119 CRE-bla CHO-K1 cells, LiveBLAzer-FRET B/G); type: cell-based; conditions: for EC50: 5 hours incubation; for Emax (Fold): maximum activity, response ratio versus non-treated control group
T1 construct: host or cells: CHO-K1 (GPR119 CRE-bla, doxycycline-induced)
T1 sequence (Q8TDV5 1-335): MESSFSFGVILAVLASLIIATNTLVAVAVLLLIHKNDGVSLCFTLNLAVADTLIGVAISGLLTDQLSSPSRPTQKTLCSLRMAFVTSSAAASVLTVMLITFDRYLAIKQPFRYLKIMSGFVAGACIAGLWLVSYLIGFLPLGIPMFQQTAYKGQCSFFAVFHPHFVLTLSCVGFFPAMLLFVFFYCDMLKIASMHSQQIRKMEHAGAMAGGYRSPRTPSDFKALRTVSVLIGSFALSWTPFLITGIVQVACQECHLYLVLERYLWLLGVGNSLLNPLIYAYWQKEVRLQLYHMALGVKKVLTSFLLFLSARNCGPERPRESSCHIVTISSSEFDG
Method: 32 μl of an assay medium (DMEM supplemented with GlutaMax™ 99%, dialyzed FBS 1%, non-essential amino acid 1 mM, HEPES 25 mM, penicillin 100 U/ml, and streptomycin 100 μg/ml) was added to each well of a 384 black well plate and then the GPR119 CRE-bla CHO-K1 cells (Invitrogen) were seeded in 1×10^4 cells per well. Doxycycline was dissolved in the assay medium in the concentration of 1 μg/ml. The resulting solution (4 μl) was added to each well, which was then incubated in a 5% CO 2 incubator at 37° C. for about 20 to 24 hours. Each test compounds were diluted with the assay medium to prepare 10 samples, which have concentrations ranging from […], respectively. Each samples (8 μl) was added to each well, which was then incubated in a 5% CO2 incubator at 37° C. for 5 hours. In case of the control group, the well was treated with a solution (8 μl) prepared by diluting dimethyl sulfoxide (DMSO) in the assay medium to 1%. The substrate mixture (8 μl) was added to each well, which was then left under darkness at room temperature for 2 hours. The substrate mixture contains the followings: 1 mM LiveBLAzer™-FRET B/G(CCF4-AM) substrate 6 μl, solution B 60 μl, solution C 904 μl, and solution D 30 μl.
Fluorescence intensity was determined under the wavelength conditions of 400 nm/465 nm (excitation/emission) for the blue channel and 400 nm/535 nm (excitation/emission) for the green channel, with the fluorescence microplate reader (SpectraFluor Plus. TECAN). The net activity of each well was calculated by subtracting the average value of the cell-free control group from the value of the unstimulated (i.e., non-treated) control group or the stimulated (i.e., test compound-treated) group at each wavelength. MBX-2982 (Metabolex) was used as a control drug. The response ratio was calculated by dividing the net signal ratio (465 nm/535 nm) of the control drug or the test compound by the net signal ratio (465 nm/535 nm) of the non-treated control group. The relative ratio (R.R) was calculated by dividing the maximum activity [Emax (fold)] of the test compound (i.e., % activity in comparison with the background) by the maximum activity [Emax (fold)] of the control drug (MBX-2982) [Emax (% RR)=(Emax of the test compound/Emax of MBX-2982)×100]. EC50 (half maximal effective concentration) was calculated using the software for statistical analysis “Prism 5.0 (GraphPad)”, based on the values obtained according to concentrations of the test compounds.

GPR119 [2] = biological target: T1, GPR119; test: as above; type: cell-based; conditions: (Emax of the test compound/Emax of MBX-2982)x100, 5 hours incubation

Q: With CC(C)c1noc(C2CCN(c3ncc(-c4ccc(-n5cnn(CN6CCCC6)c5=O)c(F)c4)cc3C#N)CC2)n1 [Example 64, 5-(3-fluoro-4-(5-oxo-1-(pyrrolidin-1-ylmethyl)-1H-1,2,4-triazol-4(5H)-yl)phenyl)-2-(4-(3-isopropyl-1,2,4-oxadiazol-5-yl)piperidin-1-yl)nicotinonitrile] as the molecule, how does the EC50 (GPR119 [1]) read?
A: 2.6 nM

Q: What about the “Emax (Fold)” value (GPR119 [1]) of the same molecule?
A: 3.8 Fold

Q: What about the “Emax (% RR)” value (GPR119 [2]) of the same molecule?
A: 130.8 % RR

Q: Which results are given for CCc1cnc(N2CCN(c3ncc(-c4ccc(-n5cnn(CN6CCCC6)c5=O)c(F)c4)cc3C#N)[C@@H](C)C2)nc1 [Example 28, (S)-2-(4-(5-ethylpyrimidin-2-yl)-2-methylpiperazin-1-yl)-5-(3-fluoro-4-(5-oxo-1-(pyrrolidin-1-ylmethyl)-1H-1,2,4-triazol-4(5H)-yl)phenyl)nicotinonitrile]?
A: EC50 (GPR119 [1]): 4 nM; Emax (Fold) (GPR119 [1]): 3.9 Fold; Emax (% RR) (GPR119 [2]): 145.6 % RR

Q: With CCc1cnc(N2CCN(c3ncc(-c4ccc(-n5cnn(CC(C)(C)O)c5=O)c(F)c4)cc3C#N)[C@@H](C)C2)nc1 [Example 11, (S)-2-(4-(5-ethylpyrimidin-2-yl)-2-methylpiperazin-1-yl)-5-(3-fluoro-4-(1-(2-hydroxy-2-methylpropyl)-5-oxo-1H-1,2,4-triazol-4(5H)-yl)phenyl)nicotinonitrile] as the molecule, how does the EC50 (GPR119 [1]) read?
A: 5 nM

Q: And the “Emax (Fold)” value (GPR119 [1])?
A: 2.9 Fold

Q: And the “Emax (% RR)” value (GPR119 [2])?
A: 102.1 % RR

Q: C[C@H]1CN(c2ccc(C(F)(F)F)cn2)CCN1c1ncc(-c2ccc(-n3cnn(C)c3=O)c(F)c2)cn1 [Example 8, (S)-4-(2-fluoro-4-(2-(2-methyl-4-(5-(trifluoromethyl)pyridin-2-yl)piperazin-1-yl)pyrimidin-5-yl)phenyl)-1-methyl-1H-1,2,4-triazol-5(4H)-one] was tested. Which EC50 (GPR119 [1]) did it give?
A: 5 nM

Q: What about the “Emax (Fold)” value (GPR119 [1]) of the same molecule?
A: 2.5 Fold

Q: What about the “Emax (% RR)” value (GPR119 [2]) of the same molecule?
A: 113.4 % RR

Q: What does the source list for CCc1cnc(N2CCN(c3ncc(-c4ccc(-n5cn[nH]c5=O)c(F)c4)cc3C#N)[C@@H](C)C2)nc1 [Example 21, (S)-2-(4-(5-ethylpyrimidin-2-yl)-2-methylpiperazin-1-yl)-5-(3-fluoro-4-(5-oxo-1H-1,2,4-triazol-4(5H)-yl)phenyl)nicotinonitrile]?
A: EC50 (GPR119 [1]): 2 nM; Emax (Fold) (GPR119 [1]): 2.9 Fold; Emax (% RR) (GPR119 [2]): 102.0 % RR

Q: How did the EC50 (GPR119 [1]) turn out when CCc1cnc(N2CCN(c3ncc(-c4ccc(-n5cnn(CCNC(=O)OC(C)(C)C)c5=O)c(F)c4)cc3C#N)[C@@H](C)C2)nc1 [Example 16, (S)-tert-butyl 2-(4-(4-(5-cyano-6-(4-(5-ethylpyrimidin-2-yl)-2-methylpiperazin-1-yl)pyridin-3-yl)-2-fluorophenyl)-5-oxo-4,5-dihydro-1H-1,2,4-triazol-1-yl)ethylcarbamate] was run?
A: 7.2 nM

Q: And the “Emax (Fold)” value (GPR119 [1])?
A: 3.3 Fold

Q: And the “Emax (% RR)” value (GPR119 [2])?
A: 116.8 % RR

Q: With CCOC(=O)n1ncn(-c2ccc(-c3cnc(N4CCN(c5ncc(CC)cn5)C[C@@H]4C)c(C#N)c3)cc2F)c1=O [Example 24, (S)-ethyl 4-(4-(5-cyano-6-(4-(5-ethylpyrimidin-2-yl)-2-methylpiperazin-1-yl)pyridin-3-yl)-2-fluorophenyl)-5-oxo-4,5-dihydro-1H-1,2,4-triazol-1-carboxylate] as the molecule, how does the EC50 (GPR119 [1]) read?
A: 4.5 nM

Q: What about the “Emax (Fold)” value (GPR119 [1]) of the same molecule?
A: 3.6 Fold

Q: And the “Emax (% RR)” value (GPR119 [2])?
A: 124.6 % RR

Q: With C=C(C)OC(=O)N(C)C1CCN(c2ncc(-c3ccc(-n4cnn(C(C)C)c4=O)c(F)c3)cc2C#N)CC1 [Example 59, prop-1-en-2-yl 1-(3-cyano-5-(3-fluoro-4-(1-isopropyl-5-oxo-1H-1,2,4-triazol-4(5H)-yl)phenyl)pyridin-2-yl)piperidin-4-yl(methyl)carbamate] as the molecule, how does the EC50 (GPR119 [1]) read?
A: 31 nM

Q: And the “Emax (Fold)” value (GPR119 [1])?
A: 2.5 Fold

Q: And the “Emax (% RR)” value (GPR119 [2])?
A: 100.8 % RR

Q: Which EC50 (GPR119 [1]) does the source give for CCc1cnc(N2CCN(c3ncc(-c4cc(F)c(-n5cnn(C)c5=O)cc4F)cc3C#N)[C@@H](C)C2)nc1 [Example 29, (S)-5-(2,5-difluoro-4-(1-methyl-5-oxo-1H-1,2,4-triazol-4(5H)-yl)phenyl)-2-(4-(5-ethylpyrimidin-2-yl)-2-methylpiperazin-1-yl)nicotinonitrile] here?
A: 1.5 nM

Q: What about the “Emax (Fold)” value (GPR119 [1]) of the same molecule?
A: 3.1 Fold

Q: What about the “Emax (% RR)” value (GPR119 [2]) of the same molecule?
A: 110.1 % RR

Q: How did the EC50 (GPR119 [1]) turn out when CC(C)c1nc(N2CCN(c3ncc(-c4ccc(-n5cnn(C)c5=O)c(F)c4)cc3C#N)CC2)no1 [Example 45, 5-(3-fluoro-4-(1-methyl-5-oxo-1H-1,2,4-triazol-4(5H)-yl)phenyl)-2-(4-(5-isopropyl-1,2,4-oxadiazol-3-yl)piperazin-1-yl)nicotinonitrile] was run?
A: 7.3 nM

Q: What about the “Emax (Fold)” value (GPR119 [1]) of the same molecule?
A: 4.2 Fold

Q: What about the “Emax (% RR)” value (GPR119 [2]) of the same molecule?
A: 144.7 % RR

Q: Which EC50 (GPR119 [1]) does the source give for CC(C)c1nc(N2CCN(c3ncc(-c4ccc(-n5cnn(C(C)C)c5=O)c(F)c4)cc3C#N)CC2)no1 [Example 46, 5-(3-fluoro-4-(1-isopropyl-5-oxo-1H-1,2,4-triazol-4(5H)-yl)phenyl)-2-(4-(5-isopropyl-1,2,4-oxadiazol-3-yl)piperazin-1-yl)nicotinonitrile] here?
A: 4.2 nM

Q: And the “Emax (Fold)” value (GPR119 [1])?
A: 3.9 Fold

Q: What about the “Emax (% RR)” value (GPR119 [2]) of the same molecule?
A: 133.3 % RR

Q: For CCCn1ncn(-c2ccc(-c3cnc(N4CCC(c5noc(C(C)C)n5)CC4)c(C#N)c3)cc2F)c1=O [Example 66, 5-(3-fluoro-4-(5-oxo-1-propyl-1H-1,2,4-triazol-4(5H)-yl)phenyl)-2-(4-(5-isopropyl-1,2,4-oxadiazol-3-yl)piperidin-1-yl)nicotinonitrile], which EC50 (GPR119 [1]) is on record?
A: 2.5 nM

Q: And the “Emax (Fold)” value (GPR119 [1])?
A: 3.1 Fold

Q: And the “Emax (% RR)” value (GPR119 [2])?
A: 122.1 % RR

Q: Which EC50 (GPR119 [1]) does the source give for CCc1cnc(N2CCN(c3ncc(-c4ccc(-n5cnn(CCNC(C)C)c5=O)c(F)c4)cc3C#N)[C@@H](C)C2)nc1.Cl [Example 20, (S)-2-(4-(5-ethylpyrimidin-2-yl)-2-methylpiperazin-1-yl)-5-(3-fluoro-4-(1-(2-(isopropylamino)ethyl)-5-oxo-1H-1,2,4-triazol-4(5H)-yl)phenyl)nicotinonitrile hydrochloride] here?
A: 5.6 nM

Q: And the “Emax (Fold)” value (GPR119 [1])?
A: 3.1 Fold

Q: What about the “Emax (% RR)” value (GPR119 [2]) of the same molecule?
A: 109.6 % RR

Q: Which EC50 (GPR119 [1]) does the source give for CCc1cnc(N2CCN(c3ncc(-c4ccc(-n5cnn(CCNC(C)=O)c5=O)c(F)c4)cc3C#N)[C@@H](C)C2)nc1 [Example 26, (S)—N-(2-(4-(4-(5-cyano-6-(4-(5-ethylpyrimidin-2-yl)-2-methylpiperazin-1-yl)pyridin-3-yl)-2-fluorophenyl)-5-oxo-4,5-dihydro-1H-1,2,4-triazol-1-yl)ethyl)acetamide] here?
A: 20 nM

Q: And the “Emax (Fold)” value (GPR119 [1])?
A: 3.4 Fold

Q: And the “Emax (% RR)” value (GPR119 [2])?
A: 112.5 % RR

Q: What does the source list for CCc1cnc(N2CCN(c3ncc(-c4ccc(-n5cnn(C[C@H](O)CO)c5=O)c(F)c4)cc3C#N)CC2)nc1 [Example 36, (S)-5-(4-(1-(2,3-dihydroxypropyl)-5-oxo-1H-1,2,4-triazol-4(5H)-yl)-3-fluorophenyl)-2-(4-(5-ethylpyrimidin-2-yl)piperazin-1-yl)nicotinonitrile]?
A: EC50 (GPR119 [1]): 13.2 nM; Emax (Fold) (GPR119 [1]): 4.3 Fold; Emax (% RR) (GPR119 [2]): 118.1 % RR

Q: With CCc1cnc(N2CCN(c3ncc(-c4ccc(-n5cnn(CC(C)C)c5=O)c(F)c4)cc3C#N)[C@@H](C)C2)nc1 [Example 12, (S)-2-(4-(5-ethylpyrimidin-2-yl)-2-methylpiperazin-1-yl)-5-(3-fluoro-4-(1-isobutyl-5-oxo-1H-1,2,4-triazol-4(5H)-yl)phenyl)nicotinonitrile] as the molecule, how does the EC50 (GPR119 [1]) read?
A: 1 nM

Q: What about the “Emax (Fold)” value (GPR119 [1]) of the same molecule?
A: 2.6 Fold

Q: And the “Emax (% RR)” value (GPR119 [2])?
A: 103.8 % RR

Q: For CCc1cnc(N2CCN(c3ncc(-c4ccc(-n5cnn([C@H]6CCNC6)c5=O)cc4)cc3C#N)CC2)nc1 [Example 42, (S)-2-(4-(5-ethylpyrimidin-2-yl)piperazin-1-yl)-5-(4-(5-oxo-1-(pyrrolidin-3-yl)-1H-1,2,4-triazol-4(5H)-yl)phenyl)nicotinonitrile], which EC50 (GPR119 [1]) is on record?
A: 21 nM

Q: And the “Emax (Fold)” value (GPR119 [1])?
A: 3.0 Fold

Q: And the “Emax (% RR)” value (GPR119 [2])?
A: 109.3 % RR
